Laboratory results as given in patent US20100099564A1, “HERBICIDE COMBINATION COMPRISING DIMETHOXYTRIAZINYL-SUBSTITUTED DIFLUOROMETHANESULFONYLANILIDES” (BAYER CROPSCIENCE AG, priority 2008, published 2010).
Like-named read-outs stand apart in the source and are kept apart here.

Columns and labels:
Assay type in all cases: in vivo
[1] = test system: Alopecurus myosuroides (ALOMY); experiment: Post-emergence action, greenhouse pot test, visual scoring: ALOMY; conditions: for pest or weed control at 400 g/ha: B 400 g of ai/ha
Description: (§1) Seeds or rhizome pieces of mono- and dicotyledonous harmful and useful plants were placed in peat pots (diameter 4 cm) filled with sandy loam and then covered with soil. The pots were kept in a greenhouse under optimum conditions. In addition, harmful plants encountered in paddy rice cultivation were cultivated in pots with a water level 2 cm above the soil surface.
(§2) About three weeks after the start of the cultivation, the test plants were treated at the 2- to 3-leaf stage. The herbicides, formulated as powder or liquid concentrates, were, either alone or in the combinations according to the invention, sprayed in various dosages on to the green parts of the plants using an application rate of 600 l of water/ha (converted). For further cultivation of the plants, the pots were then again kept under optimum conditions in a greenhouse.
(§3) The visual scoring of the herbicidal effects was carried out in intervals up to 21 days after the treatment. Scoring was carried out in percent in comparison to the untreated control plants. 0%=no herbicidal activity, 100%=complete herbicidal activity=complete kill.
(§4) The percentages from the treatments with the herbicides alone (=individual application) and with the combinations according to the invention (=mixtures) were employed to calculate interactions using the method of Colby. When the observed efficacies of the mixtures exceed the formal sum of the values of the tests with individual applications, they also exceed the expected value according to Colby, which is calculated using the formula below (cf. S. R. Colby; in Weeds 15 (1967) pp. 20 to 22):
(§5) Here: • A, B=activity of components A and B in percent at a dosage of a and b g of ai/ha (=gramm of active substance per hectare), respectively. • E=expected value in % at a dosage of a+b g of ai/ha.

[2] = test system: Triticum aestivum (TRZAS); experiment: Post-emergence action, greenhouse pot test, visual scoring: TRZAS
Description: as §1, §2, §3, §4, §5
(§6) The combinations according to the invention of herbicides from group (A) with herbicides from group (B) were tested on a broad spectrum of important harmful plants (weed grasses, broad-leaved weeds/Cyperaceae) and useful plants: Triticum aestivum (TRZAS), Stellaria media (STEME), Lolium multiflorum (LOLMU), Veronica persica (VERPE), Alopecurus myosuroides (ALOMY), Matricaria inodora (MATIN), Brassica napus (BRSNW), Viola tricolor (VIOTR), Avena fatua (AVEFA), Amaranthus retroflexus (AMARE), Zea mays (ZEAMX), Pharbitis purpurea (PHBPU), Setaria viridis (SETVI), Fallopia (ex Polygonum) convolvulus (POLCO), Echinochloa crusgaffi (ECHCG), Abuthilon theophrasti (ABUTH), Cyperus esculentus (CYPES), Oryza sativa (ORYSA).
(§7) Of particular interest are the results shown in the tables (Tab.) below, where the following key is used: • (1) EPPO code (former Bayer code) for the treated plant (see above) • (2) Time of scoring: DAT (days after treatment) • (3) Component A tested (identifying number) • (4) Component B tested (identifying number) • (5) Dosage component A [g of ai/ha] • (6) Dosage component B [g of ai/ha] • (7) % activity found • (8) E value (calculated according to Colby; see above) • (9) Comments: “SYNERGY” =synergistic interaction (E value<% activity found); “SAFENING”=safener action on useful plant (E value>% activity found)

[3] = test system: Abuthilon theophrasti (ABUTH); experiment: Post-emergence action, greenhouse pot test, visual scoring: ABUTH; conditions: 21 DAT
Description: as §1, §2, §3, §4, §5, §6, §7

[4] = test system: Viola tricolor (VIOTR); experiment: Post-emergence action, greenhouse pot test, visual scoring: VIOTR; conditions: rate (5) 4
Description: as §1, §2, §3, §4, §5, §6, §7

[5] = test system: Zea mays (ZEAMX); experiment: Post-emergence action, greenhouse pot test, visual scoring: ZEAMX; conditions: for plant injury at 1200 g/ha: Zea mays, post-emergence, B 1200 g of ai/ha, read-out: % activity found
Description: as §1, §2, §3, §4, §5, §6, §7

[6] = test system: Pharbitis purpurea (PHBPU); experiment: Post-emergence action, greenhouse pot test, visual scoring: PHBPU
Description: as §1, §2, §3, §4, §5, §6, §7

[7] = test system: Fallopia (ex Polygonum) convolvulus (POLCO); experiment: Post-emergence action, greenhouse pot test, visual scoring: POLCO; conditions: 21 DAT
Description: as §1, §2, §3, §4, §5, §6, §7

[8] = test system: Oryza sativa (ORYSA); experiment: Post-emergence action, greenhouse pot test, visual scoring: ORYSA
Description: as §1, §2, §3, §4, §5, §6, §7

[9] = test system: Lolium multiflorum (LOLMU); experiment: Post-emergence action, greenhouse pot test, visual scoring: LOLMU; conditions: for (7) % activity found: 21 DAT
Description: as §1, §2, §3, §4, §5, §6, §7

[10] = test system: Stellaria media (STEME); experiment: Post-emergence action, greenhouse pot test, visual scoring: STEME; conditions: 10 DAT
Description: as §1, §2, §3, §4, §5, §6, §7

[11] = test system: Cyperus esculentus (CYPES); experiment: Post-emergence action, greenhouse pot test, visual scoring: CYPES
Description: as §1, §2, §3, §4, §5

[12] = test system: Setaria viridis (SETVI); experiment: Post-emergence action, greenhouse pot test, visual scoring: SETVI; conditions: 21 DAT
Description: as §1, §2, §3, §4, §5, §6, §7

[13] = test system: Avena fatua (AVEFA); experiment: Post-emergence action, greenhouse pot test, visual scoring: AVEFA; conditions: 21 DAT
Description: as §1, §2, §3, §4, §5, §6, §7

[14] = test system: Echinochloa crusgaffi (ECHCG); experiment: Post-emergence action, greenhouse pot test, visual scoring: ECHCG
Description: as §1, §2, §3, §4, §5, §6, §7

[15] = test system: Matricaria inodora (MATIN); experiment: Post-emergence action, greenhouse pot test, visual scoring: MATIN
Description: as §1, §2, §3, §4, §5

[16] = test system: Veronica persica (VERPE); experiment: Post-emergence action, greenhouse pot test, visual scoring: VERPE
Description: as §1, §2, §3, §4, §5, §6, §7

[17] = test system: Amaranthus retroflexus (AMARE); experiment: Post-emergence action, greenhouse pot test, visual scoring: AMARE; conditions: 10 DAT
Description: as §1, §2, §3, §4, §5

COc1nc(OC)nc(C(=O)c2cccc(F)c2N(C)S(=O)(=O)C(F)F)n1 [A-1]
(7) % activity found ([1]; 21 DAT, rate (5) 4): 40% | (7) % activity found ([1]; 21 DAT, rate (5) 12): 50% | (7) % activity found ([2]; 10 DAT, rate (5) 4): 0% | (7) % activity found ([2]; 10 DAT, rate (5) 12): 0% | (7) % activity found ([2]; 21 DAT, rate (5) 4): 0% | (7) % activity found ([2]; 21 DAT, rate (5) 12): 0% | % activity found ([3]; dose (5) 4): 85% | % activity found ([3]; dose (5) 12): 85% | (7) % activity found ([4]; 10 DAT): 20% | (7) % activity found ([4]; 21 DAT): 0% | (7) % activity found ([5]; 10 DAT, rate (5) 4): 0% | (7) % activity found ([5]; 10 DAT, rate (5) 12): 0% | (7) % activity found ([5]; 21 DAT, rate (5) 12): 0% | % activity found ([6]; 10 DAT, dose (5) 4): 60% | % activity found ([6]; 21 DAT, dose (5) 4): 60% | (7) % activity found ([6]; 21 DAT, rate (5) 12): 65% | (7) % activity found ([7]; rate (5) 4): 75% | (7) % activity found ([7]; rate (5) 12): 70% | (7) % activity found ([8]; 10 DAT, rate (5) 4): 10% | (7) % activity found ([8]; 10 DAT, rate (5) 12): 10% | (7) % activity found ([8]; 21 DAT, rate (5) 4): 0% | (7) % activity found ([8]; 21 DAT, rate (5) 12): 10% | (7) % activity found ([9]; rate (5) 4): 0% | (7) % activity found ([9]; rate (5) 12): 10% | % activity found ([10]; dose (5) 4): 70% | % activity found ([10]; dose (5) 12): 70% | (7) % activity found ([11]; 10 DAT, rate (5) 4): 70% | (7) % activity found ([11]; 10 DAT, rate (5) 12): 70% | (7) % activity found ([11]; 21 DAT, rate (5) 4): 80% | (7) % activity found ([11]; 21 DAT, rate (5) 12): 80% | (7) % activity found ([12]; rate (5) 4): 0% | (7) % activity found ([12]; rate (5) 12): 20% | (7) % activity found ([13]; rate (5) 4): 10% | (7) % activity found ([13]; rate (5) 12): 30% | (7) % activity found ([14]; 10 DAT, rate (5) 12): 70% | % activity found ([14]; 21 DAT, dose (5) 4): 85% | % activity found ([15]; 10 DAT, A 12 g of ai/ha): 70% | (7) % activity found ([16]; 21 DAT, rate (5) 4): 30% | (7) % activity found ([16]; 21 DAT, rate (5) 12): 40%

CCCCOCN(C(=O)CCl)c1c(CC)cccc1CC [B4-3, N-(butoxymethyl)-2-chloro-N-(2,6-diethylphenyl)acetamide]
pest or weed control at 400 g/ha ([1]; Alopecurus myosuroides, post-emergence, 240 h, 10 DAT, read-out: % activity found): 20% | pest or weed control at 400 g/ha ([1]; Alopecurus myosuroides, post-emergence, 504 h, 21 DAT, read-out: % activity found): 0% | pest or weed control at 1200 g/ha ([1]; Alopecurus myosuroides, post-emergence, 504 h, 21 DAT, B 1200 g of ai/ha, read-out: % activity found): 50% | plant injury at 400 g/ha ([2]; Triticum aestivum, post-emergence, 240 h, 10 DAT, B 400 g of ai/ha, read-out: % activity found): 0% | % activity found ([3]; B 400 g of ai/ha): 0% | % activity found ([17]; B 400 g of ai/ha): 0% | % activity found ([17]; B 1200 g of ai/ha): 0% | plant injury at 1200 g/ha ([5]; 240 h, 10 DAT): 20% | plant injury at 1200 g/ha ([5]; 504 h, 21 DAT): 0% | % activity found ([6]; 10 DAT, B 400 g of ai/ha): 0% | % activity found ([6]; 10 DAT, B 1200 g of ai/ha): 0% | % activity found ([6]; 21 DAT, B 400 g of ai/ha): 0% | % activity found ([6]; 21 DAT, B 1200 g of ai/ha): 0% | % activity found ([7]; B 400 g of ai/ha): 0% | % activity found ([7]; B 1200 g of ai/ha): 0% | plant injury at 400 g/ha ([8]; Oryza sativa, post-emergence, 240 h, 10 DAT, B 400 g of ai/ha, read-out: % activity found): 0% | % activity found ([9]; 10 DAT, B 400 g of ai/ha): 40% | % activity found ([10]; B 400 g of ai/ha): 0% | pest or weed control at 400 g/ha ([12]; Setaria viridis, post-emergence, 504 h, B 400 g of ai/ha, read-out: % activity found): 0% | % activity found ([13]; B 1200 g of ai/ha): 50% | % activity found ([15]; 10 DAT, B 400 g of ai/ha): 0% | % activity found ([15]; 10 DAT, B 1200 g of ai/ha): 20% | % activity found ([15]; 21 DAT, B 400 g of ai/ha): 0% | % activity found ([15]; 21 DAT, B 1200 g of ai/ha): 40% | % activity found ([16]; 10 DAT, B 400 g of ai/ha): 0% | % activity found ([16]; 10 DAT, B 1200 g of ai/ha): 0% | % activity found ([16]; 21 DAT, B 1200 g of ai/ha): 20%
